Laboratory results as given in patent US8633251B2, “Derivatives of aminoalkanols, method of obtaining of aminoalkanols and their use” (Uniwersytet Jagiellonski, priority 2008, dated 2014).
Structures can show the parent of a compound that is named as a salt.

Key:
[1] = system: maximal electroshock seizures; experiment: Maximum Electroshock Seizure (MES) test, mice; format: in vivo; conditions: mice
Summary of the method: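 Mice received compound in methylcellulose i.p. or p.o. at 30, 100 and 300 mg/kg, with some tests at 10 and 3 mg/kg. At 0.5 or 4 h, after tetracaine eye-drops, current was delivered through corneal electrodes (60 Hz, 0.2 s, 50 mA). Groups were one mouse at 30 and 300 mg/kg and three at 100 mg/kg.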

neurotoxicity (rotarod) = experiment: Neurotoxicity test (TOX), rotarod, mice; format: in vivo
[2] = system: maximal electroshock seizures; experiment: Maximum Electroshock Seizure (MES) test, rats; format: in vivo; conditions: 0.25 h
Description: In order to define anticonvulsant activity, screening tests were performed, using animal models of seizures. […] The tests were based on administration of a compound to an animal and after certain time inducing state similar to epilepsy attack in human. Each substance (after dissolving in methylcellulose) was normally tested in doses 30, 100, and 300 mg/kg body weight (b.w.) (mice) or in 30 and 50 mg/kg b.w. (rats) in two possible routes of administration: intraperitoneal (i.p.) or oral (p.o.). […] […] (mice) the tests were also performed in doses 10 and 3 mg/kg b.w.
Maximum Electroshock Seizure (MES) test is an electric test, verifying activity towards generalized tonic-clonic seizures (grand mal epilepsy). […] Its procedure consists in administration to an animal a mentioned dose, […] (after anesthetic eye-drops: 0.5% tetracaine hydrochloride in 0.9% NaCl) and turning on electric current (60 Hz, 0.2 s, 50 mA (mice) or 150 mA (rats)). […]

With `Cc1cccc(C)c1OCCNC(C)(C)CCO` (as salt: hydrochloride) [Compound 15, 3N-[(2,6-dimethylphenoxy)ethyl]amino-3-methyl-1-butanol hydrochloride] the melting point was 170 to 172 °C.
`Cc1cccc(C)c1OCCN[C@H](CO)C(C)C` (as salt: hydrochloride) [Compound 16, L-2N-[(2,6-dimethylphenoxy)ethyl]amino-3-methyl-1-butanol hydrochloride] gave a melting point of 162 to 164 °C.
Work on `Cc1cccc(C)c1OCCNCCCCCO` (as salt: hydrochloride) [Compound 17, 5N-[(2,6-dimethylphenoxy)ethyl]amino-1-pentanol hydrochloride] yielded a melting point of 138 to 140 °C.
`Cc1cccc(C)c1OCCCN[C@H](C)CO` (as salt: hydrochloride) [Compound 52, R-(−)-2N-[(2,6-dimethylphenoxy)propyl]amino-1-propanol hydrochloride] showed a melting point of 119 to 120 °C.
Work on `CCC(NC(=O)COc1c(C)cccc1C)C(N)=O` (racemic) [Compound 66, D,L-2N-[(2,6-dimethylphenoxy)acetyl]aminobutyramide] yielded a melting point of 182 to 184 °C.
With `Cc1cccc(C)c1OCCNC[C@@H](C)O` [Compound 10, R-(−)-1N-[(2,6-dimethylphenoxy)ethyl]amino-2-propanol] the responders at 30 mg/kg ([1]; Mus musculus, dose 30 mg/kg b.w., time 0.5 h, read-out: MES, No. of protected animals/No. of used animals) was 100%, the responders at 100 mg/kg ([1]; Mus musculus, dose 100 mg/kg b.w., time 4 h, read-out: MES, No. of protected animals/No. of used animals (converted)) was 100% and the “TOX, No. of animals exhibiting motor impairment/no. of used animals” value (neurotoxicity (rotarod); mice, dose 30 mg/kg b.w., time 0.5 h) was 1/4. For the same compound, the “TOX, No. of animals exhibiting motor impairment/no. of used animals” value (neurotoxicity (rotarod); mice, dose 100 mg/kg b.w., time 0.5 h) was 8/8, the “TOX, No. of animals exhibiting motor impairment/no. of used animals” value (neurotoxicity (rotarod); mice, dose 100 mg/kg b.w., time 4 h) was 1/3 and the “TOX, No. of animals exhibiting motor impairment/no. of used animals” value (neurotoxicity (rotarod); mice, dose 300 mg/kg b.w., time 0.5 h) was 4/4. It also gave a melting point of 76 to 77 °C.
In the case of `Cc1cccc(C)c1OCCNC(C)CO` (centres unmarked) [Compound 11, R,S-2N-[(2,6-dimethylphenoxy)ethyl]amino-1-propanol], the “MES, No. of protected animals/No. of used animals” value ([1]; dose 30 mg/kg b.w., time 0.5 h) is reported as 1/1, the “ED50 (MES, rats, p.o., 0.25 h)” value ([2]; p.o.) is reported as 47.03 mg/kg b.w and the “TOX, No. of animals exhibiting motor impairment/no. of used animals” value (neurotoxicity (rotarod); mouse, in vivo, 30 mg/kg) is reported as 2/4. For the same compound, the “TOX, No. of animals exhibiting motor impairment/no. of used animals” value (neurotoxicity (rotarod); mouse, in vivo, 100 mg/kg) was 8/8 and the “TOX, No. of animals exhibiting motor impairment/no. of used animals” value (neurotoxicity (rotarod); mouse, in vivo, 300 mg/kg) was 4/4.
For `Cc1cccc(C)c1OCCN[C@@H](C)CO` [Compound 13, S-(+)-2N-[(2,6-dimethylphenoxy)ethyl]amino-1-propanol], the “MES, No. of protected animals/No. of used animals” value ([1]; dose 10 mg/kg b.w., time 0.5 h) was 2/4, the “MES, No. of protected animals/No. of used animals” value ([1]; dose 30 mg/kg b.w., time 0.5 h) was 1/1 and the “ED50 (MES, mice, i.p., 0.25 h)” value ([1]; i.p., 0.25 h) was 8.59 mg/kg b.w. For the same compound, the “ED50 (MES, rats, i.p., 0.25 h)” value ([2]; i.p.) was 6.50 mg/kg b.w, the “TOX, No. of animals exhibiting motor impairment/no. of used animals” value (neurotoxicity (rotarod); mouse, in vivo, 100 mg/kg) was 8/8 and the “TOX, No. of animals exhibiting motor impairment/no. of used animals” value (neurotoxicity (rotarod); mouse, in vivo, 300 mg/kg) was 4/4.
